Experiments:
Format in all cases: biochemical
Aβ1-40 = target: T1, Aβ1-40 (Homo sapiens, UniProt P05067); test: Circular dichroism studies of Aβ1-40; settings: 40 μM Aβ1-40, 200 μM compound, pH 7.4, 37° C.
T1 construct: Aβ^1-40 (AnaSpec, San Jose, Calif., lots 14212, 34862 and 34889); purchased AnaSpec, San Jose, Calif
Procedure: Aliquots (220 μL) of pretreated Aβ^1-40 (40 μM in 20 mM Tris-HCl, pH 7.4) were added directly to 1 mm quartz circular dichroism (CD) cells, followed by 2.2 μL compound (of varying concentration) in methanol or methanol alone (controls). Solutions were incubated at 37° C. for up to 6 days. CD scans were performed on a J-810 spectropolarimeter (obtained from Jasco Corporation, Tokyo, Japan) between 190 and 250 nm, with a resolution of 0.1 nm and bandwidth of 1 nm. Ten scans were obtained for each reading. Spectra had background CD of the buffer subtracted and were left unsmoothed. Readings were performed at 37° C.
FIG. 6 depicts circular dichroism (CD) of Aβ^1-40 alone (A) and in the presence of 0j (B) and morin (C). Conditions: 40 μM Aβ^1-40, 200 μM compound (B,C), pH 7.4, Tris-HCl (20 mM), 1% MeOH. Prior to experiment, Aβ^1-40 pretreated with 1,1,1,3,3,3-hexafluoroisopropanol (HFIP).

Aβ1-42 = target: T2, Aβ1-42 (Homo sapiens, UniProt P05067); test: Kinetic Thioflavin T (ThT) aggregation assay of Aβ1-42; settings: 20 μM Aβ1-42, kinetic ThT assay
T2 construct: Aβ^1-42 (AnaSpec, lot 45685); purchased AnaSpec
Procedure: Aβ^1-42 (1.0 mg) was either pretreated with HFIP in the same manner as Aβ^1-40 or this step was omitted. After removing HFIP, when appropriate, Aβ^1-42 was dissolved in 1% NH3 (aq.) (200 μL) and sonicated for 1 min. The solution was diluted with Tris-HCl (5.7 mL, 20 mM, pH 7.4), the pH adjusted to 7.4 with concentrated HCl (aq.) and the solution filtered using a syringe filter (0.2 μm). Prior to use in the ThT aggregation assay, the solution was diluted with an equal volume of 8 μM Thioflavin T (ThT) in Tris-HCl (20 mM, pH 7.4, 300 mM NaCl).
(§1) Aliquots (200 μL) of Aβ^1-40, Aβ^1-42, tau441 or α-synuclein with ThT or ThS were added to wells of a black polystyrene 96-well plate, followed by 2 μL of a compound in DMSO (various concentrations), or DMSO alone (controls). For α-synuclein, sodium dodecyl sulfate solution (2.0 μL, 30 mM) was also added to each well to induce aggregation. Incubations were performed in triplicate and were taken to contain 20 μM Aβ^1-40 or Aβ^1-42, 6 μM tau441 or 4 μM α-synuclein. Plates were covered with clear polystyrene lids and incubated at 37° C. in a GENios microplate reader obtained from Tecan Group Limited, Mannedorf, Zurich. For Aβ^1-40, tau441 and α-synuclein, fluorescence readings (λex=450 nm, λem=480 nm) were taken every 15 min., after first shaking at high intensity for 15 sec. and allowing to settle for 10 sec. before each reading. For Aβ^1-42, readings were taken every 5 min.
The absorbance of each compound was measured under the conditions used during testing, though on ten times the scale (2 mL), to ensure no significant quenching interfered with the assay. This step was also used to identify whether compounds were completely soluble under testing conditions.
FIG. 7 depicts inhibition of Aβ^1-42 aggregation by various synthesized bi-aromatic compounds and positive controls morin (Ono K, Yoshiike Y, Takashima A, Hasegawa K, Naiki H, Yamada M. 2003. J Neurochem 87:172-81) and RS-0406 (Walsh D M, Townsend M, Podlisny M B, Shankar G M, Fadeeva J V, Agnaf O E, Hartley D M, Selkoe D J. 2005. J Neurosci 25:2455-62) in the kinetic ThT assay. Same conditions as for Aβ^1-40, FIG. 1. Compound concentrations were 100 μM in (A), 20 μM in (B), except for RS-0406, which was tested at 100 μM, and 20 μM in (C).

α-synuclein = target: T3, α-synuclein (Homo sapiens, UniProt P37840); test: α-Synuclein aggregation ThT fluorescence assay; settings: α-Synuclein (6 μM), 10 μM ThT, pH 7.4, 37° C., compound 100 μM or as indicated
T3 construct: purchased rPeptide, Bogart, GA
Procedure: α-Synuclein (1.0 mg) was dissolved directly in Tris-HCl (11.53 mL, 20 mM, pH 7.4, 100 mM NaCl) containing DTT (5 mM) and ThT (10 μM).
as §1, with “Incubations were performed in triplicate and were taken to contain 20 μM Aβ^1-40 or Aβ^1-42, 6 μM tau441 or 4 μM α-synuclein.” left out
FIG. 12 depicts inhibition of α-synuclein aggregation by synthesized bi-aromatics and positive control morin (K, Yamada M. 2006. J Neurochem 97:105-15). Aggregation conditions: α-Synuclein (6 μM) was incubated in covered black 96-well polystyrene microplates in Tris-HCl (20 mM, pH 7.4), 10 μM ThT, 1% DMSO with compound concentrations of 100 μM (A) or as indicated (B). Plates were heated at 37° C. in a Tecan Genios microplate reader. […] Fluorescence readings: fluorescence was measured every 15 min. […]

T1 sequence (P05067 672-711 limits assumed): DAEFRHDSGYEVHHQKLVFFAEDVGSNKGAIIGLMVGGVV
T2 sequence (P05067 672-713 limits assumed): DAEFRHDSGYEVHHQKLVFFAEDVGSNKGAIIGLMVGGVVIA

## O=C(O)c1ccc2[nH]cc(-c3c[nH]c4ccc(Br)cc34)c2c1 [0c, 3-(5-bromo-indol-3-yl)-indole-5-carboxylic Acid]
Aβ1-40
  random coil (RC)→β-sheet transition of Aβ1-40 by circular dichroism: this transition was inhibited

## O=c1c(O)c(-c2ccc(O)cc2O)oc2cc(O)cc(O)c12 [morin]
Aβ1-42
  inhibition of Aβ1-42 aggregation, as measured by ThT fluorescence: inhibition
α-synuclein
  inhibition of α-synuclein aggregation (ThT fluorescence): inhibition

Reference: patent US20070015813A1, “Treatment of protein folding disorders” (QUEEN'S UNIVERSITY AT KINGSTON, priority 2005, published 2007)
